Assay results taken from patent publication US20250066328A1, “PARP7 INHIBITORS” (Gilead Sciences, Inc., priority 2023, published 2025).

The compounds below were run on STAT1 (phosphorylated at Tyr701) in NCI-H1373 cells (assay: Phospho-STAT1 (Tyr701) LANCE Ultra TR-FRET detection assay in NCI-H1373 cells). Details: Homo sapiens, NCI-H1373, 48 h, 48 hours incubation, induction of pSTAT1, normalized to 10 uM positive control and DMSO, 4-parameter fit, read-out: NH1373 pSTAT1 EC50.
Format: cell-based
Protocol: Phospho-STAT1 (Tyr701 LANCE Ultra TR-FRET Detection Assay
LANCE Ultra phospho-STAT1 (Tyr701) kits are designed for the detection of phosphorylated STAT1 in cell lysates using a simple, homogeneous LANCE Ultra sandwich assay (Cat. #TRF4028M). This assay is intended for assessing compound induction of endogenous levels of cellular STAT1 (phosphorylated at Tyr701) in NCI-H1373 cells. The NCI-H1373 cells are cultured in RPMI 1640 media containing 10% heat inactivated FBS, GlutaMAX, 1% Penicillin-Streptomycin. An Echo acoustic liquid handler is used to transfer 60 nanoliters of compound dilutions using the Echo Qualified, 384-well polypropylene microplate clear flat bottom source plates into a Greiner (#781080) cell culture microplate. NCI-H1373 cells are seeded into these compound-spotted culture plates at 30,000 cells/well in a 60 uL volume in growth media. The plates are incubated in a 5% CO2 humidified incubator at 37° C. for 48 hours. […] Briefly, […] of supplemented lysis buffer is added to each well and allowed to shake for 1 hour at 400 rpm. Next, 5 ul of remixed antibody solutions (vol/vol) prepared in detection buffer are added to each well and allowed to incubate at room temperature overnight. After spinning the plate down at 300 rpm for 1 min, the plate is read on an EnVision plate reader set up for Eu^3+ Cryptate and fluorescence emission is measured at two different wavelengths (665 nm and 620 nm). The HTRF ratio is then calculated ([…]) for each well to determine the amount of pSTAT1 in the cell lysate, and the data is then normalized to 10 uM (S)-5-((1-(3-oxo-3-(4-(5-(trifluoromethyl)pyrimidin-2-yl)piperazin-1-yl)propoxy)propan-2-yl)amino)-4-(trifluoromethyl)pyridazin-3(2H)-one positive and DMSO negative controls. The values were then plotted as a function of compound concentration and a 4-parameter fit was applied to derive the EC50 values.
C[C@@H](C[C@@H](F)Cn1ccc2cc(-c3cc4c(cn3)C(F)(F)CC4)c(F)cc2c1=O)Nc1cn[nH]c(=O)c1C(F)(F)F [Example 91] showed an EC50 of 1.69 nM. C[C@@H](C[C@@H](F)Cn1ccc2cc(-c3ncc([C@@H](F)CF)cn3)c(F)cc2c1=O)Nc1cn[nH]c(=O)c1C(F)(F)F [Example 92] gave an EC50 of 1.89 nM. C[C@@H](C[C@@H](F)Cn1ccc2cc(-c3ncc([C@H](F)CF)cn3)c(F)cc2c1=O)Nc1cn[nH]c(=O)c1C(F)(F)F [Example 93] showed an EC50 of 1000 nM. C[C@@H](C[C@@H](F)Cn1ccc2cc(-c3ncc(C(F)CF)cn3)c(F)cc2c1=O)Nc1cn[nH]c(=O)c1C(F)(F)F (stereo partly drawn) [Example 94] showed an EC50 of 4.58 nM. In the case of C[C@@H](C[C@@H](F)Cn1ccc2cc(-c3ncc(C4CC4)cn3)c(F)cc2c1=O)Nc1cn[nH]c(=O)c1C(F)(F)F [Example 95], the EC50 is reported as 1.36 nM. With C[C@@H](C[C@@H](F)Cn1ccc2cc(-c3ncc(C(C)(C)F)cn3)c(F)cc2c1=O)Nc1cn[nH]c(=O)c1C(F)(F)F [Example 96] the EC50 was 1.61 nM. Compound C[C@@H](C[C@@H](F)Cn1ccc2cc(-c3ncc(OC(F)F)cn3)c(F)cc2c1=O)Nc1cn[nH]c(=O)c1C(F)(F)F [Example 97] has an EC50 of 0.97 nM. C[C@@H](C[C@@H](F)Cn1ccc2cc(-c3ncc(C(C)(F)F)cn3)c(F)c(F)c2c1=O)Nc1cn[nH]c(=O)c1C(F)(F)F [Example 98] gave an EC50 of 0.97 nM. COc1cnc(-c2cc3ccn(C[C@H](F)C[C@H](C)Nc4cn[nH]c(=O)c4C(F)(F)F)c(=O)c3c(F)c2F)nc1 [Example 99] showed an EC50 of 1.06 nM. Work on C[C@@H](C[C@@H](F)Cn1ccc2cc(-c3ncc(C(F)F)cn3)c(F)c(F)c2c1=O)Nc1cn[nH]c(=O)c1C(F)(F)F [Example 100] yielded an EC50 of 1.05 nM. With C[C@@H](C[C@@H](F)Cn1ccc2cc(-c3ncc(C(F)F)c(N)n3)c(F)c(F)c2c1=O)Nc1cn[nH]c(=O)c1C(F)(F)F [Example 101] the EC50 was 4.36 nM. For C[C@@H](C[C@@H](F)Cn1ccc2cc(-c3ncco3)c(F)cc2c1=O)Nc1cn[nH]c(=O)c1C(F)(F)F [Example 102], the EC50 was 170 nM. C[C@@H](C[C@@H](F)Cn1ccc2cc(-c3nccs3)c(F)cc2c1=O)Nc1cn[nH]c(=O)c1C(F)(F)F [Example 103] was tested, and the EC50 was 138 nM. Compound C[C@@H](C[C@@H](F)Cn1ccc2cc(-c3cnccn3)c(F)cc2c1=O)Nc1cn[nH]c(=O)c1C(F)(F)F [Example 104] has an EC50 of 36.4 nM. C[C@@H](C[C@@H](F)Cn1cnc2cc(-c3ncc(C(C)(F)F)cn3)c(F)cc2c1=O)Nc1cn[nH]c(=O)c1C(F)(F)F [Example 107] gave an EC50 of 2.52 nM. C[C@@H](C[C@@H](F)Cn1ccc2cc(-c3ncc(F)cn3)c(F)cc2c1=O)Nc1cn[nH]c(=O)c1C(F)(F)F [Example 108] was tested, and the EC50 was 2.9 nM. With C[C@@H](C[C@@H](F)Cn1ccc2cc(-c3ncccn3)c(F)cc2c1=O)Nc1cn[nH]c(=O)c1C(F)(F)F [Example 109] the EC50 was 5.63 nM. Cc1cnc(-c2cc3ccn(C[C@H](F)C[C@H](C)Nc4cn[nH]c(=O)c4C(F)(F)F)c(=O)c3cc2F)nc1 [Example 110] gave an EC50 of 1.11 nM. In the case of CC(O)c1cnc(-c2cc3ccn(C[C@H](F)C[C@H](C)Nc4cn[nH]c(=O)c4C(F)(F)F)c(=O)c3cc2F)nc1 (stereo partly drawn) [Example 111], the EC50 is reported as 4.64 nM. Compound C[C@@H](C[C@@H](F)Cn1ccc2cc(-c3ncc4c(n3)NCCO4)c(F)cc2c1=O)Nc1cn[nH]c(=O)c1C(F)(F)F [Example 113] has an EC50 of 1.94 nM. [2H]C([2H])([2H])Oc1cnc(-c2cc3ncn(C[C@H](F)C[C@H](C)Nc4cn[nH]c(=O)c4C(F)(F)F)c(=O)c3cc2F)nc1 [Example 115] showed an EC50 of 7.27 nM. For CC(C[C@H](C)Nc1cn[nH]c(=O)c1C(F)(F)F)Cn1ccc2cc(-c3ncc(C(F)(F)F)cn3)c(F)cc2c1=O (stereo partly drawn) [Example 116, 7-fluoro-2-((4S)-2-methyl-4-((6-oxo-5-(trifluoromethyl)-1,6-dihydropyridazin-4-yl)amino)pentyl)-6-(5-(trifluoromethyl)pyrimidin-2-yl)isoquinolin-1(2H)-one], the EC50 was 89.9 nM. In the case of C[C@@H](C[C@@H](F)CN1Cc2cc(-c3ncc(C(F)(F)F)cn3)c(F)cc2C1=O)Nc1cn[nH]c(=O)c1C(F)(F)F [Example 117, 6-fluoro-2-[(2R,4S)-2-fluoro-4-[[6-oxo-5-(trifluoromethyl)-1H-pyridazin-4-yl]amino]pentyl]-5-[5-(trifluoromethyl)pyrimidin-2-yl]isoindolin-1-one], the EC50 is reported as 11.8 nM. CC[C@@H](C[C@@H](F)Cn1ccc2cc(-c3ncc(C(F)(F)F)cn3)c(F)cc2c1=O)Nc1cn[nH]c(=O)c1C(F)(F)F [Example 118, 7-fluoro-2-((2R,4S)-2-fluoro-4-((6-oxo-5-(trifluoromethyl)-1,6-dihydropyridazin-4-yl)amino)hexyl)-6-(5-(trifluoromethyl)pyrimidin-2-yl)isoquinolin-1(2H)-one] gave an EC50 of 2.18 nM. O=c1[nH]ncc(O[C@@H](CCCn2ccc3cc(-c4ncc(C(F)(F)F)cn4)c(F)cc3c2=O)COC(F)F)c1C(F)(F)F [Example 120] gave an EC50 of 1000 nM. Work on CC(C)(O)c1cnc(-c2cc3ccn(C[C@H](F)C[C@H](COC(F)F)Oc4cn[nH]c(=O)c4C(F)(F)F)c(=O)c3cc2F)nc1 [Example 122] yielded an EC50 of 1.97 nM. Work on O=c1[nH]ncc(N[C@@H](CO)C[C@@H](F)Cn2ccc3cc(-c4ncc(C(F)(F)F)cn4)c(F)cc3c2=O)c1C(F)(F)F [Example 123, 7-fluoro-2-((2R,4R)-2-fluoro-5-hydroxy-4-((6-oxo-5-(trifluoromethyl)-1,6-dihydropyridazin-4-yl)amino)pentyl)-6-(5-(trifluoromethyl)pyrimidin-2-yl)isoquinolin-1(2H)-one] yielded an EC50 of 16.2 nM. O=c1[nH]ncc(N[C@@H](CO)C[C@@H](F)Cn2ccc3cc(-c4ncc(Cl)cn4)c(F)cc3c2=O)c1C(F)(F)F [Example 124] was tested, and the EC50 was 11.1 nM. Work on O=c1[nH]ncc(N[C@@H](CO)C[C@@H](F)Cn2ccc3cc(-c4ncc(C(F)F)cn4)c(F)cc3c2=O)c1C(F)(F)F [Example 125] yielded an EC50 of 41.2 nM. O=c1[nH]ncc(NC(COC(F)F)C[C@@H](F)Cn2ccc3cc(-c4ncc(C(F)(F)F)cn4)c(F)cc3c2=O)c1C(F)(F)F (stereo partly drawn) [Example 126, 2-[(2R)-5-(difluoromethoxy)-2-fluoro-4-[[6-oxo-5-(trifluoromethyl)-1H-pyridazin-4-yl]amino]pentyl]-7-fluoro-6-[5-(trifluoromethyl)pyrimidin-2-yl]isoquinolin-1-one] was tested, and the EC50 was 3.3 nM. Nc1nc(-c2cc3ccn(CC(F)CC(COC(F)F)Nc4cn[nH]c(=O)c4C(F)(F)F)c(=O)c3cc2F)ncc1C(F)F (stereo not drawn) [Example 127] showed an EC50 of 6.55 nM. Compound COc1cnc(-c2cc3ccn(CC(F)CC(COC(F)F)Nc4cn[nH]c(=O)c4C(F)(F)F)c(=O)c3cc2F)nc1 (stereo not drawn) [Example 128] has an EC50 of 3.08 nM. CC(C)(O)c1cnc(-c2cc3ccn(CC(F)CC(COC(F)F)Nc4cn[nH]c(=O)c4C(F)(F)F)c(=O)c3cc2F)nc1 (stereo not drawn) [Example 129] was tested, and the EC50 was 8.24 nM. For O=c1[nH]ncc(NC(COC(F)F)CC(F)Cn2ccc3cc(-c4ncc(C(F)F)cn4)c(F)cc3c2=O)c1C(F)(F)F (stereo not drawn) [Example 130], the EC50 was 2.24 nM. In the case of CC(F)(F)c1cnc(-c2cc3ccn(CC(F)CC(COC(F)F)Nc4cn[nH]c(=O)c4C(F)(F)F)c(=O)c3cc2F)nc1 (stereo not drawn) [Example 131], the EC50 is reported as 5.34 nM. C[C@@H](C[C@@H](F)CN1CCc2cc(-c3ncc(C(F)(F)F)cn3)c(F)cc2C1=O)Nc1cn[nH]c(=O)c1C(F)(F)F [Example 132, 7-fluoro-2-[(2R,4S)-2-fluoro-4-[[6-oxo-5-(trifluoromethyl)-1H-pyridazin-4-yl]amino]pentyl]-6-[5-(trifluoromethyl)pyrimidin-2-yl]-3,4-dihydroisoquinolin-1-one] was tested, and the EC50 was 2.7 nM.
